Test results reported in patent publication US9474790B2, “Stable, protracted GLP-1/glucagon receptor co-agonists for medical use” (Novo Nordisk A/S, priority 2013, dated 2016).
Numbered stars: 1 amine (or outer) side, 2 acyl side, 3 side chain; on linkers, the order of the positions; unused ones are H or OH. Square brackets hold non-standard residues; d marks the D form. Side chains are listed from the residue outwards. Peptide text beside a SMILES is read from it. * marks the point of attachment. C18 diacid = O=C(O)CCCCCCCCCCCCCCCCC(=O)*; γGlu = O=C(O)[C@H](CCC(=O)[*:2])N[*:1]; AEEA = NCCOCCOCC(=O)O; Aib = CC(C)(N)C(=O)O

These compounds were tested against T1, human glucagon receptor (Homo sapiens, UniProt P47871) (assay: Glucagon receptor potency, CRE luciferase reporter gene assay in BHK cells). Conditions: BHK cells expressing human glucagon receptor, read-out: EC50 GlucR.
T1 construct: expressed in transfected cells; host or cells: BHK cells (parent BHK570, CRE luciferase clone BHK/KZ10-20-48), clone pLJ6'-4-25
T1 sequence (P47871 26-477): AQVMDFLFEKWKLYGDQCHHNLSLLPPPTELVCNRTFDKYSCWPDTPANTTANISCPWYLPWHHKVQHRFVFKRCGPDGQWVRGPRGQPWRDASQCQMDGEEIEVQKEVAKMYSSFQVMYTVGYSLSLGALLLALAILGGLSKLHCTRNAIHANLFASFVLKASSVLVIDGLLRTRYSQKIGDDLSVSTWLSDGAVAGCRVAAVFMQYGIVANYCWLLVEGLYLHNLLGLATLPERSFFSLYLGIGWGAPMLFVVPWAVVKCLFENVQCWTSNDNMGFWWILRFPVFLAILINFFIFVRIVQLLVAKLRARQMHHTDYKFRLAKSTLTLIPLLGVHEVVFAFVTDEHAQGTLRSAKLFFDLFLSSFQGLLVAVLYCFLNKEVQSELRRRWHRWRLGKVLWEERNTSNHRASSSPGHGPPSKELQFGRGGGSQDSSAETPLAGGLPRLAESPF
Format: cell-based
Procedure: The purpose of this example was to test the potency, of the glucagon derivatives of the invention, in vitro. The in vitro potency is the measure of human GLP-1 receptor or glucagon receptor activation, respectively, in a whole cell assay.
In vitro potency was determined by measuring the response of human GLP-1 or glucagon receptor, respectively, in a reporter gene assay. The assay was performed in a stably transfected BHK cell line that expresses either the human GLP-1 receptor or the human glucagon receptor and contains the DNA for the cAMP response element (CRE) coupled to a promoter and the gene for firefly luciferase (CRE luciferase). […] When assay incubation was completed, the luciferase substrate (luciferin) was added and the enzyme converted luciferin to oxyluciferin and produces bioluminescence. The luminescence was measured as the readout for the assay.
The cells used in this assay (clone pLJ6′-4-25) were BHK cells with BHK570 as a parent cell line expressing the CRE luciferase gene (clone BHK/KZ10-20-48) and were established by further transfection with the human glucagon receptor (clone pLJ6′ in pHZ-1 vector).
The cells were cultured at 5% CO2 in DMEM medium with 10% FBS, 1×GlutaMAX, 1 mg/ml G418, 240 nM MTX (methotrexate) and 1% pen/strep (penicillin/streptomycin). They were aliquoted and stored in liquid nitrogen. Before each assay, an aliquot was taken up and washed three times in PBS before being suspended at the desired concentration in assay medium. For 96-well plates the suspension was made to give a final concentration of 5×10EE3 cells/well.
The following chemicals were used in the assay: Pluronic F-68 (10%) (Gibco 2404), ovalbumin (Sigma A5503), DMEM w/o phenol red (Gibco 11880-028), 1 M Hepes (Gibco 15630), Glutamax 100× (Gibco 35050) and steadylite plus (PerkinElmer 6016757).
Assay Medium consisted of DMEM w/o phenol red, 10 mM Hepes, 1× GlutaMAX, 2% Ovalbumin and 0.2% Pluronic F-68.
Cell stocks were thawed in a 37° C. water bath. Cells were washed three times in PBS. The cells were counted and adjusted to 5×10EE3 cells/50 μl (1×10EE5 cells/ml) in Assay Medium. A 50 μl aliquot of cells was transferred to each well in the assay plate.
Stocks of the test compounds and reference compounds were diluted to a concentration of […] in Assay Medium. Compounds were diluted 10-fold to give the following concentrations: 2×10EE-6 M, 2×10EE-7 M, 2×10EE-8 M; 2×10EE-9 M, 2×10EE-10 M, 2×10EE-11 M, 2×10EE-12 M and 2×10EE-13 M. For each compound a blank assay medium control was also included.
A 50 μl aliquot of compound or blank was transferred from the dilution plate to the assay plate. Compounds were tested at the following final concentrations: 1×10EE-6 M, 1×10EE-7 M, 1×10EE-8 M; 1×10EE-9 M, 1×10EE-10 M, 1×10EE-11 M and 1×10EE-12 M and 1×10EE-13 M.
The assay plate was incubated for 3 h in a 5% CO2 incubator at 37° C. The assay plate was removed from the incubator and allowed to stand at room temperature for 15 min. A 100 μl aliquot of steadylite plus reagent was added to each well of the assay plate (reagent is light sensitive). Each assay plate was covered with aluminum foil to protect it from light and shaken for 30 min at room temperature. Each assay plate was read in a Perkin Elmer TopCount NXT instrument.
The data from the TopCount instrument was transferred to GraphPad Prism software. The software performed a non-linear regression (log(agonist) vs response-Variable slope (four parameter)). EC50 values were calculated by the software and reported in pM.

Row | EC50 [nM] | SMILES
1 | 0.002 | CC(C)C[C@H](NC(=O)[C@H](Cc1ccc(O)cc1)NC(=O)[C@H](CCCCN)NC(=O)[C@H](CO)NC(=O)[C@H](CC(C)C)NC(=O)[C@H](CC(=O)O)NC(=O)[C@H](CO)NC(=O)[C@@H](NC(=O)[C@H](Cc1ccccc1)NC(=O)[C@@H](NC(=O)CNC(=O)[C@H](CCC(N)=O)NC(=O)C(C)(C)NC(=O)[C@@H](N)Cc1c[nH]cn1)[C@@H](C)O)[C@@H](C)O)C(=O)N[C@@H](CC(=O)O)C(=O)N[C@@H](C)C(=O)N[C@@H](CCCNC(=N)N)C(=O)N[C@@H](CCCNC(=N)N)C(=O)N[C@@H](C)C(=O)N[C@@H](CCCNC(=N)N)C(=O)N[C@@H](CCC(=O)O)C(=O)N[C@@H](Cc1ccccc1)C(=O)N[C@H](C(=O)N[C@@H](CCC(N)=O)C(=O)N[C@@H](Cc1c[nH]c2ccccc12)C(=O)N[C@@H](CC(C)C)C(=O)N[C@@H](CC(C)C)C(=O)N[C@@H](CCCCNC(=O)CC[C@H](NC(=O)CC[C@H](NC(=O)COCCOCCNC(=O)COCCOCCNC(=O)CC[C@H](NC(=O)CCCCCCCCCCCCCCCCC(=O)O)C(=O)O)C(=O)O)C(=O)O)C(=O)N[C@H](C(N)=O)[C@@H](C)O)C(C)C [Example 43, N^ε28-[(4S)-4-carboxy-4-[[(4S)-4-carboxy-4-[[2-[2-[2-[[2-[2-[2-[[(4S)-4-carboxy-4-(17-carboxyheptadecanoylamino)butanoyl]amino]ethoxy]ethoxy]acetyl]amino]ethoxy]ethoxy]acetyl]amino]butanoyl]amino]butanoyl]-[Aib2,Leu10,Ala16,Arg20,Glu21,Leu27,Lys28]-Glucagon amide] (H-H[Aib]QGTFTSDLSKYLDARRAREFVQWLLK([γGlu-γGlu-AEEA-AEEA-γGlu-C18 diacid])T-NH2; N-terminus assumed)
2 | 0.029 | CC(C)C[C@H](NC(=O)[C@H](Cc1ccc(O)cc1)NC(=O)[C@H](CCCCN)NC(=O)[C@H](CO)NC(=O)[C@H](CC(C)C)NC(=O)[C@H](CC(=O)O)NC(=O)[C@H](CO)NC(=O)[C@@H](NC(=O)[C@H](Cc1ccccc1)NC(=O)[C@@H](NC(=O)CNC(=O)[C@H](CCC(N)=O)NC(=O)C(C)(C)NC(=O)[C@@H](N)Cc1c[nH]cn1)[C@@H](C)O)[C@@H](C)O)C(=O)N[C@@H](CCC(=O)O)C(=O)N[C@@H](CO)C(=O)N[C@@H](CCCNC(=N)N)C(=O)N[C@@H](CCCNC(=N)N)C(=O)N[C@@H](C)C(=O)N[C@@H](CCCNC(=N)N)C(=O)N[C@@H](CCC(=O)O)C(=O)N[C@@H](Cc1ccccc1)C(=O)N[C@H](C(=O)N[C@@H](CCC(N)=O)C(=O)N[C@@H](Cc1c[nH]c2ccccc12)C(=O)N[C@@H](CC(C)C)C(=O)N[C@@H](CC(C)C)C(=O)N[C@@H](CCCCNC(=O)CC[C@H](NC(=O)CC[C@H](NC(=O)CC[C@H](NC(=O)CCCCCCCCCCCCCCCCC(=O)O)C(=O)O)C(=O)O)C(=O)O)C(=O)N[C@H](C(N)=O)[C@@H](C)O)C(C)C [Example 41, N^ε28-[(4S)-4-carboxy-4-[[(4S)-4-carboxy-4-[[(4S)-4-carboxy-4-(17-carboxyheptadecanoylamino)butanoyl]amino]butanoyl]amino]butanoyl]-[Aib2,Leu10,Glu15, Arg20,Glu21,Leu27,Lys28]-Glucagon amide] (H-H[Aib]QGTFTSDLSKYLESRRAREFVQWLLK([γGlu-γGlu-γGlu-C18 diacid])T-NH2; N-terminus assumed)
3 | 0.0773 | CC(C)C[C@H](NC(=O)[C@H](Cc1ccc(O)cc1)NC(=O)[C@H](CCCCN)NC(=O)[C@H](CO)NC(=O)[C@H](CC(C)C)NC(=O)[C@H](CC(=O)O)NC(=O)[C@H](CO)NC(=O)[C@@H](NC(=O)[C@H](Cc1ccccc1)NC(=O)[C@@H](NC(=O)CNC(=O)[C@H](CCC(N)=O)NC(=O)C(C)(C)NC(=O)[C@@H](N)Cc1c[nH]cn1)[C@@H](C)O)[C@@H](C)O)C(=O)N[C@@H](CCC(=O)O)C(=O)N[C@@H](CO)C(=O)N[C@@H](CCCNC(=N)N)C(=O)N[C@@H](CCCNC(=N)N)C(=O)N[C@@H](C)C(=O)N[C@@H](CCCNC(=N)N)C(=O)N[C@@H](CCC(=O)O)C(=O)N[C@@H](Cc1ccccc1)C(=O)N[C@H](C(=O)N[C@@H](CCC(N)=O)C(=O)N[C@@H](Cc1c[nH]c2ccccc12)C(=O)N[C@@H](CC(C)C)C(=O)N[C@@H](CC(C)C)C(=O)N[C@@H](CCCCNC(=O)CC[C@H](NC(=O)CC[C@H](NC(=O)COCCOCCNC(=O)COCCOCCNC(=O)CC[C@H](NC(=O)CCCCCCCCCCCCCCCCC(=O)O)C(=O)O)C(=O)O)C(=O)O)C(=O)N[C@H](C(N)=O)[C@@H](C)O)C(C)C [Example 23, N^ε28-[(4S)-4-carboxy-4-[[(4S)-4-carboxy-4-[[2-[2-[2-[[2-[2-[2-[[(4S)-4-carboxy-4-(17-carboxyheptadecanoylamino)butanoyl]amino]ethoxy]ethoxy]acetyl]amino]ethoxy]ethoxy]acetyl]amino]butanoyl]amino]butanoyl]-[Aib2,Leu10,Glu15,Arg20,Glu21,Leu27,Lys28]-Glucagon amide] (H-H[Aib]QGTFTSDLSKYLESRRAREFVQWLLK([γGlu-γGlu-AEEA-AEEA-γGlu-C18 diacid])T-NH2; N-terminus assumed)
4 | 0.01 | CC(C)C[C@H](NC(=O)[C@H](Cc1ccc(O)cc1)NC(=O)[C@H](CCCNC(=N)N)NC(=O)[C@H](CO)NC(=O)[C@H](CC(C)C)NC(=O)[C@H](CC(=O)O)NC(=O)[C@H](CO)NC(=O)[C@@H](NC(=O)[C@H](Cc1ccccc1)NC(=O)[C@@H](NC(=O)CNC(=O)[C@H](CCC(N)=O)NC(=O)C(C)(C)NC(=O)[C@@H](N)Cc1c[nH]cn1)[C@@H](C)O)[C@@H](C)O)C(=O)N[C@@H](CC(=O)O)C(=O)N[C@@H](C)C(=O)N[C@@H](CCCNC(=N)N)C(=O)N[C@@H](CCCNC(=N)N)C(=O)N[C@@H](C)C(=O)N[C@@H](CCCNC(=N)N)C(=O)N[C@@H](CC(=O)O)C(=O)N[C@@H](Cc1ccccc1)C(=O)N[C@H](C(=O)N[C@@H](CCC(N)=O)C(=O)N[C@@H](Cc1c[nH]c2ccccc12)C(=O)N[C@@H](CC(C)C)C(=O)N[C@@H](CC(C)C)C(=O)N[C@@H](CCCCNC(=O)CC[C@H](NC(=O)CC[C@H](NC(=O)CC[C@H](NC(=O)CCCCCCCCCCCCCCCCC(=O)O)C(=O)O)C(=O)O)C(=O)O)C(=O)N[C@H](C(N)=O)[C@@H](C)O)C(C)C [Example 62, N^ε28-[(4S)-4-carboxy-4-[[(4S)-4-carboxy-4-[[(4S)-4-carboxy-4-(17-carboxyheptadecanoylamino)butanoyl]amino]butanoyl]amino]butanoyl]-[Aib2,Leu10,Arg12,Ala16,Arg20,Leu27,Lys28]-Glucagon amide] (H-H[Aib]QGTFTSDLSRYLDARRARDFVQWLLK([γGlu-γGlu-γGlu-C18 diacid])T-NH2; N-terminus assumed)
